Assay results as given in patent US8518989B2, “Prodrugs of short-chain fatty acids and treatment methods” (Georgia Health Sciences University Research Institute, Inc., priority 2005, dated 2013).

Experiments:
Format in all cases: cell-based
rat ATB^0,+ = target: T1, rat ATB^0,+ (Rattus norvegicus, UniProt Q334I2); assay: Inhibition of ATB0,+-mediated 3H-glycine uptake in HRPE cells expressing cloned rat ATB0,+; settings: 5 mM; HRPE cells
T1 sequence (Q334I2 1-640): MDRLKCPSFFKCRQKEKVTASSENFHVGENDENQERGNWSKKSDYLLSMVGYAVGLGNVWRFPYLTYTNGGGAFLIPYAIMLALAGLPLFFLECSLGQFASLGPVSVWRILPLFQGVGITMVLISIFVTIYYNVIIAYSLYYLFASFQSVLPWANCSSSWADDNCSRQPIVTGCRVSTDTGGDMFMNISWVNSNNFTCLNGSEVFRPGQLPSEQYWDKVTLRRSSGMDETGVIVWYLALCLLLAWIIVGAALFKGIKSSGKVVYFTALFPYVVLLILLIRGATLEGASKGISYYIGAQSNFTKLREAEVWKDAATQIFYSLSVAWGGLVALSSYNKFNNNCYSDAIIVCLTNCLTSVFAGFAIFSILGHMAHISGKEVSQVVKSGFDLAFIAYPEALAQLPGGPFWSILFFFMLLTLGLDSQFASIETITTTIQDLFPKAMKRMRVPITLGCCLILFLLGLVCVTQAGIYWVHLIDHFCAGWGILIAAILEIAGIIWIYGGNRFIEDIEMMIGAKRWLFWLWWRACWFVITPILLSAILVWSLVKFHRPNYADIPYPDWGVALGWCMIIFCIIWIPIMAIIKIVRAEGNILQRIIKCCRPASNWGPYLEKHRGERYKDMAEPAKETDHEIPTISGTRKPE

human SLC5A8 [1] = target: T2, human SLC5A8 (Homo sapiens, UniProt Q8N695, F251V/V193I); assay: Uptake of radiolabeled short-chain fatty acids in Xenopus oocytes injected with SLC5A8 cRNA; settings: 1 h incubation
T2 construct: We amplified the coding region of SLC5A8 mRNA by RT-PCR using human intestinal mRNA as the template; expressed in transfected cells; host or cells: Xenopus laevis oocytes, 50 ng capped cRNA from the pGH19 construct
T2 sequence (Q8N695 1-610 V193I/F251V): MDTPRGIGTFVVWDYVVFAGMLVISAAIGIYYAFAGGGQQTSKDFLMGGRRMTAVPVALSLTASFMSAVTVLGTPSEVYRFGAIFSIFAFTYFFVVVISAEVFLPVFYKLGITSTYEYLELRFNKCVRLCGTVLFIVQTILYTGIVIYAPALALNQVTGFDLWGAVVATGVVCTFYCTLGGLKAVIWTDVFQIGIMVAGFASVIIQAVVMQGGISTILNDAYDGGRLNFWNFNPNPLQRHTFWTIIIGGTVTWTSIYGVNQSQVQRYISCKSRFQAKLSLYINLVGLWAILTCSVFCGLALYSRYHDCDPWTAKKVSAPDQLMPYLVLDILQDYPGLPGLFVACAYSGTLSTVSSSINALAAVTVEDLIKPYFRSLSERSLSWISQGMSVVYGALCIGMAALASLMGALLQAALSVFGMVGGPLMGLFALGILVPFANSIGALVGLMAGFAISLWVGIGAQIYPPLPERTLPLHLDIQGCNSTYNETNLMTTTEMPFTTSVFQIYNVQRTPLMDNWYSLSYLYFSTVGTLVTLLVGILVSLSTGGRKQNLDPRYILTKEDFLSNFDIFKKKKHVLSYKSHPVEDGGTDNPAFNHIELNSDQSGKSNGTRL
Method: (§1) The amplified human SLC5A8 cDNA was expressed heterologously in Xenopus oocytes by cRNA injection. Capped cRNA from SLC5A8 cDNA was synthesized using the mMESSAGE mMACHINE kit (Ambion Inc., Austin, Tex.). Mature oocytes (stage 1V or V) from Xenopus laevis were injected with 50 ng cRNA. Uninjected oocytes served as controls. The oocytes were used for uptake and electrophysiological studies 3-6 days after cRNA injection. Uptake of radiolabeled substrates in uninjected and cRNA-injected oocytes was determined as described previously (Fei, Y. J., et al., (1995) Biochemistry 34, 8744-8751).
(§2) Eight oocytes were used for each uptake measurement. Electrophysiological studies were performed by the two-microelectrode voltage clamp method (11. Wang, H., Fei, et al., (2000) Am. J. Physiol. 278:C1019-C1030; Inoue, K, et al. (2004) Biochem. J. 378:949-957).
Uptake of short-chain fatty acids in uninjected oocytes and in oocytes injected with SLC5A8 cRNA was measured with 1 h incubation. Concentration of substrates (labeled plus unlabeled) varied in the range of 50-500 μM depending on the specific radioactivity of the substrates. Eight oocytes were used for each uptake measurement. Data represent means±SE.

human SLC5A8 [2] = target: T2, human SLC5A8; assay: Two-microelectrode voltage clamp of substrate-induced currents in SLC5A8-expressing oocytes
Method: as §1, §2
Oocytes were perfused with a NaCl-containing buffer (100 mM NaCl, 2 mM KCl, 1 mM MgCl2, 1 mM CaCl2, 3 mM Hepes, 3 mM Mes, and 3 mM Tris, pH 7.5), followed by the same buffer containing different fatty acids. The membrane potential was clamped at −50 mV. The differences between the steady-state currents measured in the presence and absence of substrates were considered as the substrate-induced currents. To investigate the current-membrane potential (I—V) relationship, step changes in membrane potential were applied, each for a duration of 100 ms in 20-mV increments. The kinetic parameter K0.5 (i.e. the substrate concentration necessary for the induction of half-maxima) current) was calculated by fitting the values of the substrate-induced currents to Michaelis-Menten equation. The Na^+-activation kinetics was analyzed by measuring the substrate-specific currents in the presence of increasing concentrations of Na^+. The data were analyzed by the Hill equation to determine the Hill coefficient (h; the number of Na^+ ions involved in the activation process). The kinetic parameters were determined using the computer program Sigma Plot, version 6.0 (SPSS, Inc., Chicago, Ill.). Electrophysiological measurements of substrate-induced currents were repeated at least four times with separate oocytes. The data are presented as means±S.E. of these replicates.
The charge-to substrate transfer ratio was determined for propionate in four different oocytes as described previously (Wang, H., et al. (2000) Am. J. Physiol. 278:C1019-C1030 12. Inoue, K., Fei, Y. J., Zhuang, L., Gopal, E., Miyauchi, S., and Ganapathy, V. (2004) Biochem. J. 378:949-957). The oocytes were perfused with 25 μM propionate (unlabeled plus radiolabeled propionate), and inward currents were monitored over a period of 8-10 min. At the end of the experiment, the amount of propionate transported into the oocytes was calculated by measuring the radioactivity associated with the oocytes. The area within the curve describing the relationship between the time and inward current was integrated to calculate the charge transferred into the oocyte during incubation with propionate. The values for substrate transfer and charge transfer were used to determine the charge to substrate transfer ratio.

SMILES: CC(=O)O [acetate]
- Inhibition of ATB0,+-mediated glycine transport (in words) (rat ATB^0,+): did not inhibit glycine transport
- Fold increase of uptake (cRNA-injected over uninjected) (human SLC5A8 [1]): 1.8 fold
- Uptake, cRNA-injected oocytes (human SLC5A8 [1]; SLC5A8 cRNA-injected oocytes): 0.059 ± 0.003
- Uptake, uninjected oocytes (human SLC5A8 [1]; uninjected control oocytes): 0.032 ± 0.001
- Relative magnitude of substrate-induced currents (human SLC5A8 [2]; 5 mM, -50 mV): intermediate
- K0.5 for SLC5A8 (human SLC5A8 [2]; four oocytes): 2.46 ± 0.89 mM
